Data reported in PMC10095747, “Modulatory Effects of Atractylodin and β-Eudesmol on Human Cytochrome P450 Enzymes: Potential Drug-Drug Interactions” (Molecules, 2023).
Where two headings read alike, the source gives them in different places.

Tests used:
mCYP1A2 = assay: ex vivo mCYP1A2 activity in mouse liver microsomes (phenacetin O-deethylation); details: daily oral 100 mg/kg body weight
Text: Phenacetin and nifedipine are substrates of CYP1A2 and CYP3A11, respectively. Both substrates are converted via the CYP enzyme to paracetamol and dehydronefedipine, respectively. The concentrations of paracetamol and dehydronefedipine were used to determine the activities of mCYP1A2 and mCYP3A11. The effects of atractylodin and β-eudesmol on mCYP1A2 and mCYP3A11 activities were, respectively, determined by measuring paracetamol (mCYP1A2-dependent metabolite) and dehydronifiedipine (mCYP3A11-dependent metabolite) concentrations.
(§1) Eight-week-old male ICR (Imprinting Control Region) mice weighing 35–40 g were used to investigate the modulatory effects of atractylodin and β-eudesmol on mCYP1A2 and mCYP3A11. The study protocol was approved by the Ethics Committee for Animal Research at Thammasat University (protocol number 016/2020). All animals were obtained from Nomura Siam International Co., Ltd. (Bangkok, Thailand). The animals were acclimatized for one week before the experiments. A total of 36 mice were allocated to three groups (i) control group (3 mice), (ii) atractylodin-treated group, and (iii) β-eudesmol-treated group. For atractylodin and β-eudesmol-treated groups, animals were fed with 100 mg/kg body weight of each compound for 1, 7, 14, and 21 (3 mice for each dose). Experiments were performed under the guidelines for the care and use of laboratory animals in a controlled environment of 12 h dark/light cycle, temperature 22 ± 2 °C, and relative humidity 30–70% at the Thammasat University Animal Center. Animals were observed daily for changes in signs and symptoms by a veterinarian. Mice were allowed access to the food pellets and water ad libitum.
(§2) Mouse liver samples were cut into small pieces, and the liver microsomes were prepared as described previously. The concentrations of proteins in the microsomes were determined using Pierce™ BCA Protein Assay Kit. mCYP1A2 and mCYP3A11 activities were evaluated based on phenacetin O-deethylation and nifedipine oxidation activities, respectively. The incubation mixture of 500 µL consisted of microsomes, substrate ([…]), and NADPH. […] The final organic solvent concentration in the incubation mixture was not higher than 1%. Each experiment was repeated three times (duplicated each). Determination of the concentrations of metabolites of mCYP1A2 (paracetamol) and mCYP3A11 (dehydronifedipine) in the reaction was performed using HPLC Agilent 1260 Infinity II with mobile gradient phase between methanol and distilled water at an initial ratio of 20:80 (v:v) and UV detection (240 nm). Calibration curves for both CYP450 activities were created over a concentration range of 1–50 µM. Oxidized nifedipine concentrations were determined using HPLC as follows: UV detection at 235 nm with an isocratic mobile phase consisting of methanol and distilled water (70:30, v:v). […] In each analytical batch, quality control (QC) samples were run in duplicate at low, medium, and high concentrations. Acceptance criteria were four out of six QC analyses falling within 100 ± 15% of the nominal values.

mCYP3A11 = assay: ex vivo mCYP3A11 protein expression in mouse liver microsomes (western blot); details: daily oral 100 mg/kg body weight
Text: as §1, §2
The microsomal protein concentration for both mCYP1A2 and […] was 25 μg protein per lane. Proteins were denatured by combining equal volumes of liver microsomes with sample buffer (1:19 (v:v) of 2-mercaptoethanol and 2x Laemmle buffer) and heating at 100 °C for 5 min. Proteins were separated using 12% SDS-PAGE according to their size characteristics before being migrated to nitrocellulose blotting membranes.

mCYP3A11 mRNA = assay: ex vivo mCYP3A11 mRNA expression in mouse livers (real-time PCR); details: male ICR mice, daily oral 100 mg/kg body weight, vs control
Text: as §1
Total mRNA was extracted from mouse livers using Trizol according to the manufacturer’s instructions. The concentration of mRNA was quantified by a nanodrop spectrophotometer. The First-Strand cDNA Synthesis Kit was used to generate cDNA from RNA. The CFX96 Touch Real-Time PCR Detection System was used to determine the expressions of mCYP1A2, mCYP3A11, and β-actin genes using the iTaq Universal SYBR Green Supermix. The PCR condition and the delta-delta Ct calculation were according to the previously described article. All primers used in this study were synthesized by Gibthai Co. Ltd. (Bangkok, Thailand).

rCYP2D6 = rCYP2D6 (Homo sapiens, UniProt P10635); assay: luminogenic P450-Glo CYP450 inhibition assay, rCYP2D6; details: three independent experiments
Text: The luminescent cytochrome P450 assay was used to determine CYP450-mediated (CYP1A2, 2C9, 2C19, 2D6, and 3A4) metabolism of atractylodin and β-eudesmol. The assay consisted of each recombinant human CYP450 (rCYP450), control membranes lacking P450 activity, a luminogenic CYP450 substrate (luciferin-ME substrate for rCYP1A2, luciferin-H substrate for rCYP2C9, luciferin-H EGE substrate for rCYP2C19, luciferin-ME EGE substrate for rCYP2D6, and luciferin-IPA substrate for rCYP3A4), KPO4 buffer, luciferin free water, NADPH regeneration system, and a luciferin detection reagent. The rCYP450 enzymes were generated from a baculovirus-infected insect cell expression system. The concentrations of the recombinant CYPs used were 0.5 (rCYP1A2 and rCYP2C9), 0.25 (rCYP2C19 and rCYP2D6) or 0.2 (rCYP3A4) pmol (0.5μL) per reaction. […] A luciferin product was produced after adding 25 µL of NADPH Regeneration System (solution A, solution B, and luciferin-free water) and incubated at 37 °C for 10 (rCYP1A2 and rCYP3A4), 20 (rCYP2C19 and rCYP2C9) or 30 (rCYP2D6) minutes. The reaction was stopped and converted to a luminescent signal after adding Luciferin Detection Reagent (50 µL) and incubated at 25 °C for 20 min. The luminescence signals obtained were determined using a Varioskan® Flash microplate reader (Waltham, MA, USA). The magnitude of luminescence in all of the samples represented CYP450 activity. […] All stock solutions were diluted with luciferin-free water until the final concentration of organic solvent was less than 0.25% (v/v) of the total reaction. The concentration range of atractylodin and β-eudesmol used were 2.74–686 µM and 2.25–562 µM, respectively. […] The concentration that inhibited the activity of each rCYP450 by 50% (IC50) was calculated using Calcusyn software (Cambridge, UK). Data are reported as the median (range) of the three independent experiments.

Sequence of rCYP2D6 (P10635 whole entry): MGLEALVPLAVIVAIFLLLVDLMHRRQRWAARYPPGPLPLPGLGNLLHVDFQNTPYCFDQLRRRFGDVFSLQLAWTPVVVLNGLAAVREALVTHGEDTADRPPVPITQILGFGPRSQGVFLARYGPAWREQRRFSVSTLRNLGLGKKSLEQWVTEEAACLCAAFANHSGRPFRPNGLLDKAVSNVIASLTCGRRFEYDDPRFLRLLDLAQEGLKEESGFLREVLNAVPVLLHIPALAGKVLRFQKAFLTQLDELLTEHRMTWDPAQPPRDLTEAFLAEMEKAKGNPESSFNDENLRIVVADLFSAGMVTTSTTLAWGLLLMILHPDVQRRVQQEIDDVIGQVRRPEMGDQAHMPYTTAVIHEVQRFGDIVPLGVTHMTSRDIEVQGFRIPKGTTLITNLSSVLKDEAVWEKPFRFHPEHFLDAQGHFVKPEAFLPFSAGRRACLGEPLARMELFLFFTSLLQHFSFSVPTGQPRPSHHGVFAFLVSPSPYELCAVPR

C/C=C/C#CC#C/C=C/c1ccco1 [Atractylodin]
Paracetamol concentration (mCYP1A2 activity) (mCYP1A2; 1 day, control 11.40, 100 mg/kg): significantly increased
Paracetamol concentration (mCYP1A2 activity) (mCYP1A2; 1 day, control 11.40, listed as Atactylodin, 100 mg/kg): 15.80 µM
Paracetamol concentration (mCYP1A2 activity) (mCYP1A2; 7 days, control 12.25): 12.00 µM
Paracetamol concentration (mCYP1A2 activity) (mCYP1A2; 14 days, control 12.80): 14.50 µM
Paracetamol concentration (mCYP1A2 activity) (mCYP1A2; 21 days, control 12.90, 100 mg/kg): significant decrease
Paracetamol concentration (mCYP1A2 activity) (mCYP1A2; 21 days, control 12.90, listed as Atactylodin, 100 mg/kg): 10.60 µM
Protein expression ratio of mCYP3A11 (mCYP3A11; 1 day, control 1.73): 1.82
Protein expression ratio of mCYP3A11 (mCYP3A11; 7 days, control 1.57, 100 mg/kg): significantly downregulated
Protein expression ratio of mCYP3A11 (mCYP3A11; 7 days, control 1.57, listed as Atactylodin, 100 mg/kg): 1.26
Protein expression ratio of mCYP3A11 (mCYP3A11; 14 days, control 2.31, 100 mg/kg): significantly downregulated
Protein expression ratio of mCYP3A11 (mCYP3A11; 14 days, control 2.31, listed as Atactylodin, 100 mg/kg): 1.67
Protein expression ratio of mCYP3A11 (mCYP3A11; 21 days, control 2.18, 100 mg/kg): significantly downregulated
Protein expression ratio of mCYP3A11 (mCYP3A11; 21 days, control 2.18, listed as Atactylodin, 100 mg/kg): 1.41
Fold-changes of mCYP3A11 mRNA levels (mCYP3A11 mRNA; 1 day): 1.72 fold
Fold-changes of mCYP3A11 mRNA levels (mCYP3A11 mRNA; 7 days): 1.3 fold
Fold-changes of mCYP3A11 mRNA levels (mCYP3A11 mRNA; 14 days): 0.87 fold
Fold-changes of mCYP3A11 mRNA levels (mCYP3A11 mRNA; 21 days): 0.62 fold
Median IC50 (Range) rCYP2D6 (rCYP2D6; median (range)): >125 µg/mL
IC50 (rCYP2D6; read-out: Median IC50 (Range) rCYP2D6, median (range)): > 686 µM

C=C1CCC[C@]2(C)CC[C@@H](C(C)(C)O)C[C@@H]12 [β-Eudesmol]
Paracetamol concentration (mCYP1A2 activity) (mCYP1A2; 1 day, control 11.40): 12.35 µM
Paracetamol concentration (mCYP1A2 activity) (mCYP1A2; 7 days, control 12.25): 11.80 µM
Paracetamol concentration (mCYP1A2 activity) (mCYP1A2; 14 days, control 12.80): 13.25 µM
Paracetamol concentration (mCYP1A2 activity) (mCYP1A2; 21 days, control 12.90, listed as β-eudesmol, 100 mg/kg): significantly decreased
Paracetamol concentration (mCYP1A2 activity) (mCYP1A2; 21 days, control 12.90, listed as β‐eudesmol, 100 mg/kg): 8.30 µM
Protein expression ratio of mCYP3A11 (mCYP3A11; 1 day, control 1.73): 1.50
Protein expression ratio of mCYP3A11 (mCYP3A11; 7 days, control 1.57): 1.62
Protein expression ratio of mCYP3A11 (mCYP3A11; 14 days, control 2.31, listed as β-eudesmol, 100 mg/kg): significantly downregulated
Protein expression ratio of mCYP3A11 (mCYP3A11; 14 days, control 2.31, listed as β‐eudesmol, 100 mg/kg): 1.60
Protein expression ratio of mCYP3A11 (mCYP3A11; 21 days, control 2.18, listed as β-eudesmol, 100 mg/kg): significantly downregulated
Protein expression ratio of mCYP3A11 (mCYP3A11; 21 days, control 2.18, listed as β‐eudesmol, 100 mg/kg): 1.42
Fold-changes of mCYP3A11 mRNA levels (mCYP3A11 mRNA; 1 day, 100 mg/kg): 2.18 fold
Fold-changes of mCYP3A11 mRNA levels (mCYP3A11 mRNA; 7 days, 100 mg/kg): 1.5 fold
Fold-changes of mCYP3A11 mRNA levels (mCYP3A11 mRNA; 7 days, listed as β‐eudesmol, 100 mg/kg): 1.50 fold
Fold-changes of mCYP3A11 mRNA levels (mCYP3A11 mRNA; 14 days): 0.96 fold
Fold-changes of mCYP3A11 mRNA levels (mCYP3A11 mRNA; 21 days): 0.78 fold
IC50 (rCYP2D6; Median IC50 (Range) rCYP2D6, median (range)): > 562 µM
